Like-named read-outs stand apart in the source and are kept apart here.
How the values were obtained:
plasma 24HC [1] = test: Healthy Japanese subjects, Part 1: plasma 24HC pharmacodynamics; assay type: in vivo, human; conditions: for AUEC24 of plasma 24HC / AUECt of plasma 24HC (time 0 to last sampling time point) / E24 of plasma 24HC (observed effect at 24 hours) / Emax of plasma 24HC (maximum drug-induced effect): mean (% CV); for Emax: Homo sapiens, read-out: % change from Baseline in Emax of plasma 24HC; for Emax / % change from Baseline in AUEC24 of plasma 24HC / % change from Baseline in E24 of plasma 24HC: mean; for Time to Emax of plasma 24HC: median (min-max)
Description: On Day 1 of each dose level, a single dose of TAK-935 or placebo was administered, and safety, PK and PD were evaluated.
Blood samples for PD analysis of plasma 24HC level were collected into blood collection tubes (vacutainer) containing the anticoagulant K2EDTA.
The PD assessments described below were performed at the time points stipulated in the schedule of procedures. The additional PD endpoints included the following PD parameters for plasma 24HC: […]

[2] = both, human, in vivo
Description: The study enrolled 48 subjects in the single rising dose study. Subjects were sorted into six cohorts and randomly assigned to treatment or placebo groups.
A prior study of soticlestat dosing in dogs guided the safety margin of minimal and maximal single dose selection for human subjects. An initial dosage of 10 mg provided a 44-fold safety margin relative to the maximum safe dosage in dogs. […] Each dose trial contained two placebo subjects. Ascending doses were tested in 2 sentinel subjects at a time to determine safety and tolerability before including the full cohort.
The mean values in table 6 with the superscript “a” were derived from n=3 subjects and values with superscript “b” were derived from n=4 subjects.

[3] = test system: seizure frequency in pediatric patients with Dravet syndrome or Lennox-Gastaut syndrome; test: ELEKTRA: percent change in seizure frequency from baseline; assay type: in vivo, human; conditions: for Number of patients with 25% reduction in seizures (responders) / Number of patients with 50% reduction in seizures (responders) / Number of patients with 75% reduction in seizures (responders) / Number of patients with 100% reduction in seizures (responders): maintenance period; for Median percent change in seizure frequency from baseline / Range of percent change in seizure frequency from baseline / seizure frequency change from baseline versus placebo: ELEKTRA; for Median percent change in seizure frequency from baseline / Range of percent change in seizure frequency from baseline: N 64; for seizure frequency change from baseline versus placebo: pediatric DEE patients
Text: Other inclusion criteria were body weight ≥10 kg, currently taking a fixed dosage of 1 to 4 antiseizure medications, and failure to remain seizure free after trying at least two antiseizure medications. Convulsive seizures include focal to bilateral tonic-clonic with impaired awareness, hemi-clonic, simultaneous bilateral clonic, and generalized tonic-clonic seizures. Drop seizures can involve the entire body, trunk, or head which leads to falling. […] Approximately 126 patients ages ≥2 and ≤17 years were enrolled in the study. The study included two main phases, a 4-6 week screening and baseline period, and a 20-week treatment period. Patients received doses twice a day in a tablet formulation. The starting dose was adjusted according to the patient's body weight (Table 17).
During the first 8 weeks of treatment patient dosing was a titrated for individual optimization. The remaining 12-weeks of treatment consisted of a maintenance phase. The study began with treating patients ≥9 years of age for one month before treating younger patients. Blood was collected for PK analysis on the first dosage day within one hour of the morning dose, and 30 minutes, and 1, 2, 3, and 4 hours post-dose. Subsequent blood sampling took place before the morning dose and 30 minutes post-dose. Blood samples were obtained at scheduled times for determining PK profile and Tmax, which is the time Cmax was reached. A patient's seizure frequency was recorded before and during the trial to calculate percent change from baseline.
The ELEKTRA study is described in the specification and in examples 12 and 13. […] Statistical significance was computed using a Rank Transformed Analysis of Covariance (ANCOVA) with a 2-side p-value, while adjusting for baseline seizure frequency and indication.

plasma 24HC [4] = test: Adult DEE patients: pharmacodynamics, plasma 24HC; assay type: in vivo, human; conditions: for mean plasma 24HC decrease from baseline: Part A
Description: Blood sample collection and analyses for measuring 24HC was performed as previously described in example 5.

[5] = Dravet syndrome, Weeks 9-20, N 24

Which results are given for `O=C(c1cccnc1-c1ccncc1)N1CCC(O)(Cc2ccccc2)CC1` [soticlestat]?
maximum decrease in percent change from Baseline of mean AUEC24 (plasma 24HC [1]; 1200 mg single dose, compared with placebo): approximately 11.4%; AUEC24 of plasma 24HC (plasma 24HC [1]; Day 1, single dose 200 mg): 1017 (27.5) h*ng/mL; AUEC24 of plasma 24HC (plasma 24HC [1]; Day 1, single dose 600 mg): 1311 (30.2) h*ng/mL; AUEC24 of plasma 24HC (plasma 24HC [1]; Day 1, single dose 1200 mg): 898.3 (16.6) h*ng/mL; Emax (plasma 24HC [1]; single dose 200 mg): -17.7%; Emax (plasma 24HC [1]; single dose 600 mg): -21.4%; Emax (plasma 24HC [1]; single dose 1200 mg): -29.7%; % change from Baseline in AUEC24 of plasma 24HC (plasma 24HC [1]; single dose 200 mg): −8.875%; % change from Baseline in E24 of plasma 24HC (plasma 24HC [1]; single dose 200 mg): −20.29%; AUECt of plasma 24HC (time 0 to last sampling time point) (plasma 24HC [1]; single dose 200 mg): 1918 (26.0) h*ng/mL; E24 of plasma 24HC (observed effect at 24 hours) (plasma 24HC [1]; single dose 200 mg): 39.95 (25.4) ng/mL; Emax of plasma 24HC (maximum drug-induced effect) (plasma 24HC [1]; single dose 200 mg): 35.25 (24.3) ng/mL; Time to Emax of plasma 24HC (plasma 24HC [1]; single dose 200 mg): 48.00 (48.0-48.0) h; % change from Baseline in AUEC24 of plasma 24HC (plasma 24HC [1]; single dose 600 mg): −8.482%; % change from Baseline in E24 of plasma 24HC (plasma 24HC [1]; single dose 600 mg): −24.02%; AUECt of plasma 24HC (time 0 to last sampling time point) (plasma 24HC [1]; single dose 600 mg): 2425 (31.2) h*ng/mL; E24 of plasma 24HC (observed effect at 24 hours) (plasma 24HC [1]; single dose 600 mg): 48.47 (32.0) ng/mL; Emax of plasma 24HC (maximum drug-induced effect) (plasma 24HC [1]; single dose 600 mg): 43.25 (35.3) ng/mL; Time to Emax of plasma 24HC (plasma 24HC [1]; single dose 600 mg): 48.00 (24.0-48.0) h; % change from Baseline in AUEC24 of plasma 24HC (plasma 24HC [1]; single dose 1200 mg): −11.36%; % change from Baseline in E24 of plasma 24HC (plasma 24HC [1]; single dose 1200 mg): −22.65%; AUECt of plasma 24HC (time 0 to last sampling time point) (plasma 24HC [1]; single dose 1200 mg): 1627 (18.7) h*ng/mL; E24 of plasma 24HC (observed effect at 24 hours) (plasma 24HC [1]; single dose 1200 mg): 33.57 (19.8) ng/mL; Emax of plasma 24HC (maximum drug-induced effect) (plasma 24HC [1]; single dose 1200 mg): 27.30 (24.4) ng/mL; Time to Emax of plasma 24HC (plasma 24HC [1]; single dose 1200 mg): 48.00 (48.0-48.0) h; number of TEAEs reported [2]: 29 TEAEs; Median percent change in convulsive seizure frequency per 28 days from baseline [3, 5]: −36.5%; Range of percent change in convulsive seizure frequency per 28 days from baseline [3, 5]: (−100 to 84.1) %; Number of patients with 25% reduction in seizures (responders) ([3]; Dravet syndrome, N 24): 66.7; Number of patients with 50% reduction in seizures (responders) ([3]; Dravet syndrome, N 24): 41.7; Number of patients with 75% reduction in seizures (responders) ([3]; Dravet syndrome, N 24): 20.8; Number of patients with 100% reduction in seizures (responders) ([3]; Dravet syndrome, N 24): 8.3; Median percent change in seizure frequency from baseline ([3]; Weeks 0-20): −30.05%; Range of percent change in seizure frequency from baseline ([3]; Weeks 0-20): (−100-347.5) %; Median percent change in seizure frequency from baseline ([3]; Weeks 9-20): −27.76%; Range of percent change in seizure frequency from baseline ([3]; Weeks 9-20): (−100 to 160.6) %; Median percent change from baseline in drop seizure frequency per 28 days ([3]; Lennox-Gastaut syndrome, Weeks 9-20, N 40): −18.46%; Number of patients with 25% reduction in seizures (responders) ([3]; Lennox-Gastaut syndrome, N 40): 42.5; Number of patients with 50% reduction in seizures (responders) ([3]; Lennox-Gastaut syndrome, N 40): 27.5; Number of patients with 75% reduction in seizures (responders) ([3]; Lennox-Gastaut syndrome, N 40): 10; Number of patients with 100% reduction in seizures (responders) ([3]; Lennox-Gastaut syndrome, N 40): 5; seizure frequency change from baseline versus placebo [3]: highly significant; seizure frequency change from baseline versus placebo ([3]; listed as Soticlestat): significantly decreased seizure frequency; mean plasma 24HC decrease from baseline (plasma 24HC [4]; day 11): 69.76%; mean plasma 24HC decrease from baseline (plasma 24HC [4]; day 21): 76.88%; plasma 24HC mean percent change from baseline (plasma 24HC [4]; day 11): −69.76%; plasma 24HC mean percent change from baseline (plasma 24HC [4]; day 21): −76.88%; plasma 24HC mean percent change from baseline (plasma 24HC [4]; day 85): −80.97%; mean percent decrease of plasma 24HC (plasma 24HC [4]; end of Part B (day 85)): 80.97%
